Values belong to the compound of their own block, whether it stands above or below them. Numbered stars: 1 amine (or outer) side, 2 acyl side, 3 side chain; on linkers, the order of the positions; unused ones are H or OH. Square brackets hold non-standard residues; d marks the D form. Peptide text beside a SMILES is read from it. X1 = O=C1[C@@H](N[*:1])Cc2ccccc2CN1CCC(=O)[*:2]; Dmt = Cc1cc(O)cc(C)c1C[C@H](N)C(=O)O
Tests used:
[1] = biological target: T1, Neuropeptide FF receptor 2 (Homo sapiens, UniProt Q9Y5X5); test: Agonist activity at NPFFR2 (unknown origin) expressed in HEK-293A cells assessed as inhibition of forskolin-induced cAMP accumulation preincubated for 30 mins followed by [3H] cAMP addition measured after 2 hrs by scintillation counting method; format: functional, cell-based, HEK293-A
T1 sequence (Q9Y5X5 whole entry): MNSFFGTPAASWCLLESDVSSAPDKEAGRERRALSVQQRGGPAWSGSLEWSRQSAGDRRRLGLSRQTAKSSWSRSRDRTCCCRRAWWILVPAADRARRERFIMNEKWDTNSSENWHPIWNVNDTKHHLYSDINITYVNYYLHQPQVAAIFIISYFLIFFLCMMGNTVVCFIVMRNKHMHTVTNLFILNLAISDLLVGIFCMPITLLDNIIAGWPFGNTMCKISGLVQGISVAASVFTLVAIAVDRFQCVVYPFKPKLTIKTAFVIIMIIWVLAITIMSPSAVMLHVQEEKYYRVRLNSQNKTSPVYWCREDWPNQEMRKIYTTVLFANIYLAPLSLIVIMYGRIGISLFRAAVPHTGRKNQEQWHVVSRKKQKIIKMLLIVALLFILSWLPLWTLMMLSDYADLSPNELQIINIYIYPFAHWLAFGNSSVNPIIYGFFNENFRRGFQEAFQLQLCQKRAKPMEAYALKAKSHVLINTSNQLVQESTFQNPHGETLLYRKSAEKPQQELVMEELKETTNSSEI

[2] = biological target: T2, Neuropeptide FF receptor 1 (Homo sapiens, UniProt Q9GZQ6); test: Agonist activity at NPFFR1 (unknown origin) expressed in HEK-293A cells assessed as inhibition of forskolin-induced cAMP accumulation preincubated for 30 mins followed by [3H] cAMP addition measured after 2 hrs by scintillation counting method; format: functional, cell-based, HEK293-A
T2 sequence (Q9GZQ6 whole entry): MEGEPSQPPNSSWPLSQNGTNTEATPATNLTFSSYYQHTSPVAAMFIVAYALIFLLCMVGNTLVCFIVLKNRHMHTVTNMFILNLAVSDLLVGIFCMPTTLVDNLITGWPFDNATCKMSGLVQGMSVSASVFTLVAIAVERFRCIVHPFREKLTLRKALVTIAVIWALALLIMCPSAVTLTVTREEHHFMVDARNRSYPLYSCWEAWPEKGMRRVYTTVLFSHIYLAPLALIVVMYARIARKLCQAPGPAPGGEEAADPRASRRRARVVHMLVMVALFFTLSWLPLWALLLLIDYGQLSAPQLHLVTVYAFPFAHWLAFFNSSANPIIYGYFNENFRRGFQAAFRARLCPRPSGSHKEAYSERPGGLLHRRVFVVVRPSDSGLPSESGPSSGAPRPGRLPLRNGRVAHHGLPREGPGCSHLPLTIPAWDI

[3] = biological target: T3, Kappa-type opioid receptor (Homo sapiens, UniProt P41145); test: Agonist activity at kappa opioid receptor (unknown origin) expressed in HEK-293A cells assessed as inhibition of forskolin-induced cAMP accumulation preincubated for 30 mins followed by [3H] cAMP addition measured after 2 hrs by scintillation counting method; format: functional, cell-based, HEK293-A
T3 sequence (P41145 whole entry): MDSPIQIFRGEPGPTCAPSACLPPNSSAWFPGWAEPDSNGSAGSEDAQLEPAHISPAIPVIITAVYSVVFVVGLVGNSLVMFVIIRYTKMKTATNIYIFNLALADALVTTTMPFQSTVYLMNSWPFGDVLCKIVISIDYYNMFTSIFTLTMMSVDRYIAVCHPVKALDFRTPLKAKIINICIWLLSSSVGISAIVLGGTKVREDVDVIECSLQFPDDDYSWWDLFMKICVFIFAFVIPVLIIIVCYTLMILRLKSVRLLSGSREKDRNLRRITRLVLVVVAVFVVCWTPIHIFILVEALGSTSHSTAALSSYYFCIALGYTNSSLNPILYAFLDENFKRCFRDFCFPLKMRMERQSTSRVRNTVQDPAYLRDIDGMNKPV

[4] = biological target: T1, Neuropeptide FF receptor 2; test: Agonist activity at NPFFR2 (unknown origin) expressed in mouse NIH3T3 cells by receptor selection and amplification technology assay; format: cell-based
[5] = biological target: T2, Neuropeptide FF receptor 1; test: Agonist activity at NPFFR1 (unknown origin) expressed in mouse NIH3T3 cells by receptor selection and amplification technology assay relative to control; format: cell-based
[6] = biological target: T2, Neuropeptide FF receptor 1; test: Agonist activity at NPFFR1 (unknown origin) expressed in HEK293T cells harboring EP2 incubated for 15 mins by cAMP assay relative to control; format: functional, cell-based
[7] = biological target: T2, Neuropeptide FF receptor 1; test: Displacement of 125I-NPFF from human NPFFR1 incubated for 2 hrs by TopCount scintillation counting method
[8] = biological target: T1, Neuropeptide FF receptor 2; test: Displacement of 125I-NPFF from human NPFFR2 incubated for 2 hrs by TopCount scintillation counting method
[9] = biological target: T2, Neuropeptide FF receptor 1; test: Displacement of [3H]-FFRF-NH2 from human NPFFR1 expressed in CHO cell membrane by Topcount scintillation counting method; format: cell membranes
[10] = biological target: T4, Pyroglutamylated RF-amide peptide receptor (Homo sapiens, UniProt Q96P65); test: Displacement of [125I]-43RFa from human QRFP receptor expressed in CHO cell membrane by TopCount scintillation counter method; format: cell membranes
T4 sequence (Q96P65 whole entry): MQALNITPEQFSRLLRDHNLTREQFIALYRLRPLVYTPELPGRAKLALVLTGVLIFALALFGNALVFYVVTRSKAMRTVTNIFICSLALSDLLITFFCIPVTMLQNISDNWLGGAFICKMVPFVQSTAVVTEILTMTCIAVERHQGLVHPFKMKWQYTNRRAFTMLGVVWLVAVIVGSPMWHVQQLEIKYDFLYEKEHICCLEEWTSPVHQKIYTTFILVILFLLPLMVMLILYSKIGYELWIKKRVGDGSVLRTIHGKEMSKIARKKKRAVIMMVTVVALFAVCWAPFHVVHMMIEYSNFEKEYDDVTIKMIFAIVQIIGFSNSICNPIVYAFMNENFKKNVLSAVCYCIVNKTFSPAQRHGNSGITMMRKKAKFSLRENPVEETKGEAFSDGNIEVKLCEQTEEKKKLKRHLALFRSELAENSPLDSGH

[11] = biological target: T5, Prolactin-releasing peptide receptor (Homo sapiens, UniProt P49683); test: Displacement of [3H]-PrRP-20 from human PrRP receptor expressed in CHO cell membrane by TopCount scintillation counter method; format: cell membranes
T5 sequence (P49683 whole entry): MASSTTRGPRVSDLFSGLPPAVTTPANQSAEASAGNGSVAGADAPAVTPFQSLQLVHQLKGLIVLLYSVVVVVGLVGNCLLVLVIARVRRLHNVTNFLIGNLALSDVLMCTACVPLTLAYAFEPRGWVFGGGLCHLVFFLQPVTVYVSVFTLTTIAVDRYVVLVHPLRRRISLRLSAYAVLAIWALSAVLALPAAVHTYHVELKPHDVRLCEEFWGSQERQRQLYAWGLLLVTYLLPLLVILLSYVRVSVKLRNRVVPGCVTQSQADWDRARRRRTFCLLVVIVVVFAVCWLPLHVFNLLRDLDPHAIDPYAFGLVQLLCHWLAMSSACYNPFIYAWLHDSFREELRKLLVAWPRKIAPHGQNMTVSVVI

KiSS-1 receptor = KiSS-1 receptor (Homo sapiens, UniProt Q969F8); test: Displacement of [125I]-Kp-10 from human KISS1R expressed in CHO cell membrane by TopCount scintillation counter method; format: cell membranes
Chain of KiSS-1 receptor (Q969F8 whole entry): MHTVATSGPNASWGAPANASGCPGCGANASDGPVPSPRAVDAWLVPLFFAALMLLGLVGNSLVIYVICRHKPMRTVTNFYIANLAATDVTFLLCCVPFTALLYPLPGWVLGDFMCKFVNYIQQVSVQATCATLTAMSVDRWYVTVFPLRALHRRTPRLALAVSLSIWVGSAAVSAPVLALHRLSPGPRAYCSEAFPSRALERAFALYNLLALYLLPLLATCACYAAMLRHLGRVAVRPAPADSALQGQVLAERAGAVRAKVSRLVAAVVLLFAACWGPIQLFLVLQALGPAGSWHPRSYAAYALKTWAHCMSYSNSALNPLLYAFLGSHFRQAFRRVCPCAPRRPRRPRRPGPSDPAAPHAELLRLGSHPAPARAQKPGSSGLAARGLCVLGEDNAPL

[12] = biological target: T1, Neuropeptide FF receptor 2; test: Displacement of [3H]-FFRF-NH2 from human NPFFR2 expressed in CHO cell membrane by Topcount scintillation counting method; format: cell membranes
[13] = biological target: T3, Kappa-type opioid receptor; test: Agonist activity at human kappa opioid receptor expressed in HEK293 cells assessed as inhibition of forskolin-induced cAMP accumulation incubated for 15 mins followed by forskolin addition in presence of IBMX by Glo-sensor cAMP assay; format: functional, cell-based
[14] = biological target: T1, Neuropeptide FF receptor 2; test: Agonist activity at human NPFFR2 expressed in CHO cells by [35S]-GTP S binding assay relative to control; format: cell-based; details: filed as agonist
Nociceptin receptor = Nociceptin receptor (Homo sapiens, UniProt P41146); test: Agonist activity at human nociceptin receptor expressed in HEK293 cells assessed as inhibition of forskolin-induced cAMP accumulation incubated for 15 mins followed by forskolin addition in presence of IBMX by Glo-sensor cAMP assay; format: functional, cell-based
Chain of Nociceptin receptor (P41146 whole entry): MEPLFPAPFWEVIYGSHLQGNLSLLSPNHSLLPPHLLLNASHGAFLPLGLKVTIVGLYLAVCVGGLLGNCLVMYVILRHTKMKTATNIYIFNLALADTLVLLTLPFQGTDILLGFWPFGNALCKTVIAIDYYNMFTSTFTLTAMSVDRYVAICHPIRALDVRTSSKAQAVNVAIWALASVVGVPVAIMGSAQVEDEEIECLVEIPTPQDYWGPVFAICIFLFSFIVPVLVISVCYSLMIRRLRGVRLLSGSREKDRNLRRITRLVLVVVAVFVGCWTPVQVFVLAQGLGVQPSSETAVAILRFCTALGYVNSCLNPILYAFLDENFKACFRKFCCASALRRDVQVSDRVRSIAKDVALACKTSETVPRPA

[15] = biological target: T3, Kappa-type opioid receptor; test: Agonist activity at human kappa opioid receptor expressed in HEK293 cells assessed as inhibition of forskolin-induced cAMP accumulation incubated for 15 mins followed by forskolin addition in presence of IBMX by Glo-sensor cAMP assay relative to control; format: functional, cell-based; details: filed as agonist
[16] = biological target: T2, Neuropeptide FF receptor 1; test: Agonist activity at human NPFFR1 expressed in CHO cells by [35S]-GTP S binding assay relative to control; format: cell-based; details: filed as agonist
[17] = biological target: Delta-type opioid receptor (Homo sapiens) (UniProt P41143); test: Agonist activity at human delta-opioid receptor expressed in HEK293 cells assessed as inhibition of forskolin-induced cAMP accumulation preincubated for 15 mins followed by forskolin addition in presence of IBMX by Glo-sensor cAMP assay relative to control; format: functional, cell-based; details: filed as agonist
Chain of Delta-type opioid receptor (Homo sapiens) (P41143 whole entry): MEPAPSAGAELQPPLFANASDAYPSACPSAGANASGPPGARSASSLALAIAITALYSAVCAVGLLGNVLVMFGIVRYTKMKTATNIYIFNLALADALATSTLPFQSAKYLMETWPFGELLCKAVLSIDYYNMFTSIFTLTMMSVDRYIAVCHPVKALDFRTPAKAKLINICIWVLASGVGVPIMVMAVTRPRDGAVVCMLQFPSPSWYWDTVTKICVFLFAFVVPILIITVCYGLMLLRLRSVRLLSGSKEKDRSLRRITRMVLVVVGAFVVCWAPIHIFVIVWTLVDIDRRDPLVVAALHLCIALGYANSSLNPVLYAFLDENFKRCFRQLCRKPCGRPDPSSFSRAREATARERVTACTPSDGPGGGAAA

[18] = biological target: Mu-type opioid receptor (Homo sapiens) (UniProt P35372); test: Agonist activity at human mu-opioid receptor expressed in HEK293 cells assessed as inhibition of forskolin-induced cAMP accumulation preincubated for 15 mins followed by forskolin addition in presence of IBMX by Glo-sensor cAMP assay relative to control; format: functional, cell-based; details: filed as agonist
Chain of Mu-type opioid receptor (Homo sapiens) (P35372 whole entry): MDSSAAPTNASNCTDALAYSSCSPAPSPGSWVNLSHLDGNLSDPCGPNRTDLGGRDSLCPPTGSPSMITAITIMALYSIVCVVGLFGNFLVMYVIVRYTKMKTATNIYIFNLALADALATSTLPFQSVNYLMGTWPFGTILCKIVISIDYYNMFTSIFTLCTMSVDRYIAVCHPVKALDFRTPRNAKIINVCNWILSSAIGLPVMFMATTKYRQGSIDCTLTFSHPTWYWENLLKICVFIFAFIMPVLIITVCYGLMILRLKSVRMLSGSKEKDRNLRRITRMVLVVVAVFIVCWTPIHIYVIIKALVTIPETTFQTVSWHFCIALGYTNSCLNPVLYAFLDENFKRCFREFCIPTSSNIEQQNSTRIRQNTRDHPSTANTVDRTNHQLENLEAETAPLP

[19] = biological target: T1, Neuropeptide FF receptor 2; test: Agonist activity at human NPFFR2 expressed in CHO cells assessed as inhibition of forskolin-induced cAMP accumulation incubated for 30 mins by LANCE cAMP assay; format: functional, cell-based
[20] = biological target: T1, Neuropeptide FF receptor 2; test: Agonist activity at NPFFR2 (unknown origin) expressed in HEK293 cells assessed as inhibition of forskolin-induced cAMP accumulation incubated for 30 mins relative to control; format: functional, cell-based; details: filed as agonist
[21] = biological target: T2, Neuropeptide FF receptor 1; test: Agonist activity at NPFFR1 (unknown origin) expressed in HEK293T cells harboring EP2 incubated for 15 mins by cAMP assay; format: functional, cell-based
[22] = biological target: T2, Neuropeptide FF receptor 1; test: Agonist activity at NPFFR1 (unknown origin) expressed in mouse NIH3T3 cells by receptor selection and amplification technology assay; format: cell-based
[23] = biological target: T1, Neuropeptide FF receptor 2; test: Agonist activity at NPFFR2 (unknown origin) expressed in HEK293T cells harboring EP2 incubated for 15 mins by cAMP assay; format: functional, cell-based
[24] = biological target: T1, Neuropeptide FF receptor 2; test: Agonist activity at NPFFR2 (unknown origin) expressed in HEK293T cells harboring EP2 incubated for 15 mins by cAMP assay relative to control; format: functional, cell-based; details: filed as agonist
[25] = biological target: T1, Neuropeptide FF receptor 2; test: Agonist activity at NPFFR2 (unknown origin) expressed in mouse NIH3T3 cells by receptor selection and amplification technology assay relative to control; format: cell-based; details: filed as agonist
[26] = biological target: T1, Neuropeptide FF receptor 2; test: Displacement of [3H]-FFRF-NH2 from human FLAG-tagged NPFFR2 expressed in CHO cell membrane incubated for 30 mins by Topcount scintillation counting method
[27] = biological target: T2, Neuropeptide FF receptor 1; test: Displacement of [3H]-FFRF-NH2 from human FLAG-tagged NPFFR1 expressed in CHO cell membrane incubated for 30 mins by Topcount scintillation counting method
[28] = biological target: T2, Neuropeptide FF receptor 1; test: Antagonist activity at human NPFFR1 expressed in CHO cells assessed as reversal of NPVF-induced inhibition of forskolin-stimulated cAMP accumulation incubated for 10 mins by liquid scintillation counting method; format: functional, cell-based
[29] = biological target: T1, Neuropeptide FF receptor 2; test: Displacement of [125I]Tyr-NPFF from human NPFFR2 expressed in green monkey Cos-1 cells; format: cell-based
[30] = biological target: T2, Neuropeptide FF receptor 1; test: Displacement of [125I]YVP from human NPFFR1 expressed in CHO cells; format: cell-based
[31] = biological target: T2, Neuropeptide FF receptor 1; test: Binding affinity to human NPFFR1 by radioligand binding assay
[32] = biological target: Neuropeptide FF receptor 2 (Rattus norvegicus, UniProt Q9EQD2); test: Binding affinity to rat NPFFR2 by radioligand binding assay
Chain of Neuropeptide FF receptor 2 (Rattus norvegicus, UniProt Q9EQD2) (Q9EQD2 whole entry): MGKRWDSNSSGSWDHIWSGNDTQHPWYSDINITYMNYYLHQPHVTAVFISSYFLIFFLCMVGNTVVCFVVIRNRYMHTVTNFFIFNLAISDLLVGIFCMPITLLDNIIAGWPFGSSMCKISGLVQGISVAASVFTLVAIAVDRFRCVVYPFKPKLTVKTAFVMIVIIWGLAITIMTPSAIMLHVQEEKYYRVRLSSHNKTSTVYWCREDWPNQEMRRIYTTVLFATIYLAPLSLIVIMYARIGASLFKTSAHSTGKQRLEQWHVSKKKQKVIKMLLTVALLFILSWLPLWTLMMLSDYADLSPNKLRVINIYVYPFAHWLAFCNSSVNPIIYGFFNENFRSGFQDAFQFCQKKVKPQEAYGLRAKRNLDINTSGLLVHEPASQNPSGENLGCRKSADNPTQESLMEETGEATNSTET

[33] = biological target: Neuropeptide FF receptor 1 (Rattus norvegicus, UniProt Q9EP86); test: Binding affinity to rat NPFFR1 by radioligand binding assay
Chain of Neuropeptide FF receptor 1 (Rattus norvegicus, UniProt Q9EP86) (Q9EP86 whole entry): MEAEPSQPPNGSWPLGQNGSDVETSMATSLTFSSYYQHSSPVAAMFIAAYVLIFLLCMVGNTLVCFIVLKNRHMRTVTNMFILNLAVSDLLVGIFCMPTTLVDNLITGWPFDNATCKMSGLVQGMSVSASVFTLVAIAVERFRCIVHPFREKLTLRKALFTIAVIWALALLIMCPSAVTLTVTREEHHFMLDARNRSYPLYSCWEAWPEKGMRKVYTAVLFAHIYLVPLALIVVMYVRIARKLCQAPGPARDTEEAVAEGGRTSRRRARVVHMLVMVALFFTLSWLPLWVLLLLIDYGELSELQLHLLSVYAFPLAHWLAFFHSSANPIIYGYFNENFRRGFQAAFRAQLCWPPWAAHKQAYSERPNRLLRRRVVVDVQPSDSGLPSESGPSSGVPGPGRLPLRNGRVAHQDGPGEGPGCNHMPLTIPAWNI

[34] = biological target: T1, Neuropeptide FF receptor 2; test: Binding affinity to human NPFFR2 by radioligand binding assay

EC50 [4]: 794 nM
Efficacy [5]: 11%
Efficacy [6]: 23%
Ki [7]: 100 nM
Ki [8]: 126 nM
Structure (SMILES): N=C(N)N/N=C/c1ccc(Br)c(Br)c1

EC50 [21]: 1260 nM
EC50 [22]: 251 nM
EC50 [23]: 3160 nM
Efficacy ([5]; filed as agonist): 57.8%
Efficacy [24]: 114%
Efficacy ([6]; filed as agonist): 93%
Efficacy [25]: 72.1%
Structure (SMILES): N=C(N)N/N=C/c1ccc(-c2ccccc2C(F)(F)F)o1

Ki [31]: 13 nM
Ki [32]: 185 nM
Ki [33]: 7 nM
Ki [34]: 91 nM
Structure (SMILES): Cc1cc(NC(=N)N)nc2ccccc12

Second part, the compound before the results:

Structure (SMILES): N=C(N)NCCC[C@H](NC(=O)[C@H](CCC(N)=O)NC(=O)[C@@H]1CCCN1C(=O)[C@H](CCC(N)=O)NC(=O)[C@H](Cc1ccccc1)NC(=O)[C@H](Cc1ccccc1)NC(=O)[C@@H]1CCCN1C(=O)[C@@H](N)Cc1ccc(O)cc1)C(=O)N[C@@H](Cc1ccccc1)C(N)=O (H-YPFFQPQRF-NH2)
EC50 [1]: 25.3 nM
EC50 [2]: 599 nM
EC50 [3]: 4.44 nM

Structure (SMILES): NC1=NC=C(c2ccc(Cl)c(Cl)c2)CN1
Ki [9]: 1 nM
Ki [10]: > 5000 nM
Ki [11]: > 5000 nM
Ki (KiSS-1 receptor): > 5000 nM
Ki [12]: 37 nM

Structure (SMILES): Cc1cc(O)cc(C)c1C[C@H](N)C(=O)N[C@H](CCCNC(=N)N)C(=O)N[C@H]1Cc2ccccc2CN(CCC(=O)N[C@@H](CCCNC(=N)N)C(=O)N[C@@H](Cc2ccccc2)C(N)=O)C1=O (H-[Dmt][dR][X1]RF-NH2)
EC50 [13]: 108 nM
Emax [14]: 111%
EC50 (Nociceptin receptor): > 10000 nM
Emax [15]: 95%
Emax [16]: 88%
Emax [17]: 89%
Emax [18]: 92%

Structure (SMILES): C[C@@H](NC(=O)[C@@H](N)Cc1ccc(O)cc1)C(=O)NCC(=O)N[C@@H](Cc1ccccc1)C(=O)N[C@@H](CCC(N)=O)C(=O)N1CCC[C@H]1C(=O)N[C@@H](CCC(N)=O)C(=O)N[C@@H](CCCNC(=N)N)C(=O)N[C@@H](Cc1ccccc1)C(N)=O (H-Y[dA]GFQPQRF-NH2)
EC50 [19]: 178 nM
Emax [20]: 117%

Structure (SMILES): O=C(N[C@@H](CCCN1CCCCC1)C(=O)NCCc1ccccc1)c1ccccc1-c1ccccc1
Ki [26]: 560 nM
Ki [27]: 172 nM

Structure (SMILES): NC(=O)[C@H](Cc1ccccc1)NC(=O)[C@H](CCCN=C(N)N)NC(=O)C12CC3CC(CC(C3)C1)C2
EC50 [28]: 4700 nM
Ki [29]: 75 nM
Ki [30]: 58 nM

From ChEMBL document CHEMBL4765381, “Neuropeptide FF and Its Receptors: Therapeutic Applications and Ligand Development” (J Med Chem, 2020)
